Patent US8999990B2, “Inhibitors of the renal outer medullary potassium channel” (Merck Sharp & Dohme Corp., priority 2011, dated 2015)

Target: T1, hROMK1 (Kir1.1) (Homo sapiens, UniProt P48048)
T1 construct: expressed in transfected cells
T1 sequence (P48048 1-391): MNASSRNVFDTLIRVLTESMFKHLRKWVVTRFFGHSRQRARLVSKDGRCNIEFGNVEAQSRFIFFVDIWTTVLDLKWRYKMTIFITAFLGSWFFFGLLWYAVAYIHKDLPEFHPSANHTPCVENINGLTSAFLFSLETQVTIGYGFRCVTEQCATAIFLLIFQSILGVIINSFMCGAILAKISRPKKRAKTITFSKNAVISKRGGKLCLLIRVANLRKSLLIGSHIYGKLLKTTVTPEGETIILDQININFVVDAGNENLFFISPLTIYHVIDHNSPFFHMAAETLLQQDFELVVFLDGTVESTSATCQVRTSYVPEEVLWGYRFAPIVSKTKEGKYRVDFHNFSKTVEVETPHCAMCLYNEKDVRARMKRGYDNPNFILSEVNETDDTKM
Assay: 86Rb+ Efflux Assay
Format: cell-based
Details: CHO-DHFR- cells stably expressing hROMK1; 35 min incubation
Description: Several assays may be used to measure functional inhibition of the ROMK channel by compounds of the instant invention. One assay that was used to test the activity of compounds in the Examples is the functional ^86Rb^+ efflux assay described below, that measures the ability of ROMK to permeate ^86Rb^+, in the absence or presence of test compound. Under control conditions, cells loaded with ^86Rb^+ and incubated in Rb^+-free medium display a time-dependent efflux of the isotope, the rate of which depends on number of functional channels. When cells are incubated in the presence of a channel inhibitor, efflux of ^86Rb^+ is prevented in a concentration-dependent manner, and IC50 values of inhibition by compounds can be accurately determined. This assay has been established with cell lines expressing either human, rat or dog ROMK channels, and can operate in 96- or 384-well format. Importantly, the human, rat, and dog ^86Rb^+ efflux assays can be carried out in the presence of up to 100% serum allowing, therefore, an accurate estimation of the effect of protein binding on the inhibitory activity of compounds of interest. Another ROMK functional assay used to test the activity of compounds in the Examples (described below) makes use of the ability of thallium to permeate through open ROMK channels and increase the fluorescence of a dye previously loaded into the cells. Under control conditions, cells loaded with dye and exposed to thallium-containing medium display a time-dependent increase in fluorescence, the rate of which depends on number of functional channels. When cells are incubated in the presence of a channel inhibitor, the increase in fluorescence is attenuated in a concentration-dependent manner, and IC50 values of inhibition by compounds can be accurately determined. This assay has been established with cell lines expressing either human, or rat ROMK channels, and operates in 384-well format.
CHO-DHFR-cells stably expressing hROMK1 (Kir1.1) are grown at 37° C. in a 10% CO2 humidified incubator in Iscove's Modified Dulbecco's Medium (Gibco 12440) supplemented with HT Supplement, Penicillin/Streptomycin/Glutamine, G418 (500 μg/ml) and 10% FBS. Cells are seeded in Sterile and Tissue Culture Treated Packard CulturPlate White Opaque Microplates at a concentration of 5.0E5-7.0E5 cells/ml-PerkinElmer 6005680 (96-well); Corning 3707 (384 well) in complete media containing 1.5 μCi/ml Rubidium-86. Cells are incubated in 37° C.-10% CO2 incubator overnight. On the day of the experiment, the media is removed and cells are washed with low K assay buffer. ^86Rb^+ efflux is initiated after addition of assay buffer±test compound followed by 35 min incubation at room temperature. ROMK-sensitive component of efflux is defined in the presence of 10 mM BaCl2. Assay buffer is removed and transferred to a plate and cells are solubilized in the presence of SDS. Radioactivity associated with assay and cell plate is determined.
• 1. Remove cell media and wash cells with low K assay buffer (126.9 mM NaCl, 4.6 mM KCl, 2 mM CaCl2, 1 mM MgCl2, 10 mM Hepes/NaOH; pH 7.4) • 200 μl for 96-well plate; 70 μl for 384-well plate • 2. Add assay buffer (121.5 mM NaCl, 10 mM KCl, 2 mM CaCl2, 1 mM MgCl2, 10 mM Hepes/NaOH; pH 7.4)±test compound to cells • 100 μl for 96-well plate; 50 μl for 384-well plate • 3. Incubate at ambient temperature (22-24° C.) for 35 min • 4. Remove assay buffer add it to a 96- or 384-well plate containing Microscint-20 • 96-well Plate: 100 μl buffer, 170 μl MicroScint 20 (for TopCount) • 384-well plate: 20 μl buffer, 50 μl Optiphiase (for MicroLux) • 5. Completely remove remaining assay buffer from cell plate • 6. Solubilize cells with 1% SDS; than add MicroScint or Optiphase • 96-well Plate: 30 μl SDS, 170 μl MicroScint 20 (for TopCount) • 384-well plate: 20 μl SDS, 50 μl Optiphiase (for MicroLux) • 7. Seal both cell and supernatant plates and count Data Calculation— […]

Row | Structure (SMILES) | IC50 [nM]
1 | O=C1CN(CCc2ccc([N+](=O)[O-])c(F)c2)CCN1CCc1ccc2nonc2c1 [Example 20, 1-[2-(2,1,3-Benzoxadiazol-5-yl)ethyl]-4-[2-(3-fluoro-4-nitrophenyl)ethyl]piperazin-2-one] | 170
2 | CC1C(=O)N(CCc2ccc([N+](=O)[O-])cc2)CCN1CCc1ccc([N+](=O)[O-])cc1 (racemic) [Example 6, 3-Methyl-1,4-bis[2-(4-nitrophenyl)ethyl]piperazin-2-one] | 270
3 | N#Cc1ccc2c(c1)CC(CN1CCN(CCc3ccc4c(c3)COC4=O)CC1=O)C2 (racemic) [Example 41, 2-({2-Oxo-4-[2-(1-oxo-1,3-dihydro-2-benzofuran-5-yl)ethyl]piperazin-1-yl}methyl)-2,3-dihydro-1H-indene-5-carbonitrile] | 380
4 | N#Cc1ccc2c(c1)CCC(N1CCN(CCc3ccc4nonc4c3)CC1=O)C2 (racemic) [Example 13, 6-{4-[2-(2,1,3-Benzoxadiazol-5-yl)ethyl]-2-oxopiperazin-1-yl}-5,6,7,8-tetrahydronaphthalene-2-carbonitrile] | 310
5 | N#Cc1ccc2c(c1)CCC(N1CCN(CCc3ccc4c(c3Cl)COC4=O)CC1=O)C2 (racemic) [Example 31, 6-{4-[2-(4-Chloro-1-oxo-1,3-dihydro-2-benzofuran-5-yl)ethyl]-2-oxopiperazin-1-yl}-5,6,7,8-tetrahydronaphthalene-2-carbonitrile] | 410
6 | N#Cc1ccc2c(c1)CCC(N1CCN(CCc3ccc4c(c3)CCOC4=O)CC1=O)C2 (racemic) [Example 42, 6-{2-Oxo-4-[2-(1-oxo-3,4-dihydro-1H-isochromen-6-yl)ethyl]piperazin-1-yl}-5,6,7,8-tetrahydronaphthalene-2-carbonitrile] | 300
7 | N#Cc1ccc(CCN2CCN(CCc3ccc4c(c3)COC4=O)CC2=O)cc1Br [Example 35] | 170
8 | N#Cc1ccc2c(c1)CCC(N1CCN([C@@H]3CCc4cc(C#N)ccc4C3)C(=O)C1)C2 (stereo partly drawn) [Example 17, (6R)-6,6′-(2-oxopiperazine-1,4-diyl)-di-(5,6,7,8-tetrahydronaphthalene-2-carbonitrile)] | 70
9 | Cc1cc([N+](=O)[O-])ccc1CCN1CCN(CCc2ccc([N+](=O)[O-])cc2)C(=O)C1 [Example 19, 4-[2-(2-Methyl-4-nitrophenyl)ethyl]-1-[2-(4-nitrophenyl)ethyl]piperazin-2-one] | 50
10 | N#Cc1ccc2c(c1)CCC(N1CCN(CCc3ccc([N+](=O)[O-])cc3)C(=O)C1)C2 (racemic) [Example 2, 6-(4-(4-nitrophenethyl)-3-oxopiperazin-1-yl)-5,6,7,8-tetrahydronaphthalene-2-carbonitrile] | 40
11 | COc1cc(CCN2CCN(CCc3ccc([N+](=O)[O-])cc3)C(=O)C2)ccc1[N+](=O)[O-] [Example 22, 4-[2-(3-Methoxy-4-nitrophenyl)ethyl]-1-[2-(4-nitrophenyl)ethyl]piperazin-2-one] | 170
12 | N#Cc1ccc2c(c1)CCC(N1CCN(CCc3ccc([N+](=O)[O-])c(F)c3)CC1=O)C2 (racemic) [Example 21, 6-{4-[2-(3-Fluoro-4-nitrophenyl)ethyl]-2-oxopiperazin-1-yl}-5,6,7,8-tetrahydronaphthalene-2-carbonitrile] | 120
13 | O=C1CN(CCc2ccc([N+](=O)[O-])cc2F)CCN1CCc1ccc([N+](=O)[O-])cc1 [Example 12, 4-[2-(2-Fluoro-4-nitrophenyl)ethyl]-1-[2-(4-nitrophenyl)ethyl]piperazin-2-one] | 140
14 | N#Cc1cc(CCN2CCN(CC(F)c3ccc4c(c3)COC4=O)CC2=O)ccc1F (racemic) [Example 39, 2-Fluoro-5-(2-{4-[2-fluoro-2-(1-oxo-1,3-dihydro-2-benzofuran-5-yl)ethyl]-2-oxopiperazin-1-yl}ethyl)benzonitrile] | 910
15 | O=C1OCc2cc(CCN3CCN(CCc4ccc5c(c4)COC5=O)C(=O)C3)ccc21 [Example 29, 1,4-Bis[2-(1-oxo-1,3-dihydro-2-benzofuran-5-yl)ethyl]piperazin-2-one] | 420
16 | N#Cc1ccc2c(c1)CCC(N1CCN(CCc3ccc4c(c3)COC4=O)CC1=O)C2 (racemic) [Example 26, 6-{2-Oxo-4-[2-(1-oxo-1,3-dihydro-2-benzofuran-5-yl)ethyl]piperazin-1-yl}-5,6,7,8-tetrahydronaphthalene-2-carbonitrile] | 30
17 | N#Cc1ccc2c(c1)CC(N1CCN(CCc3ccc4c(c3)COC4=O)CC1=O)CC2 (racemic) [Example 37, 7-{2-Oxo-4-[2-(1-oxo-1,3-dihydro-2-benzofuran-5-yl)ethyl]piperazin-1-yl}-5,6,7,8-tetrahydronaphthalene-2-carbonitrile] | 280
18 | N#Cc1ccc2c(c1)CCC(N1CCN(C(=O)Cc3ccc(-n4cnnn4)cc3)CC1=O)C2 (racemic) [Example 56, 6-(2-Oxo-4-{[4-(1H-tetrazol-1-yl)phenyl]acetyl}piperazin-1-yl)-5,6,7,8-tetrahydronaphthalene-2-carbonitrile] | 720
19 | Cc1c(CCN2CCN(C3CCc4cc(C#N)ccc4C3)C(=O)C2)ccc2c1COC2=O (racemic) [Example 30, 6-{4-[2-(4-Methyl-1-oxo-1,3-dihydro-2-benzofuran-5-yl)ethyl]-2-oxopiperazin-1-yl}-5,6,7,8-tetrahydronaphthalene-2-carbonitrile] | 310
20 | N#Cc1ccc2c(c1)CCCC2CN1CCN(CCc2ccc3c(c2)COC3=O)CC1=O (racemic) [Example 38, 5-({2-Oxo-4-[2-(1-oxo-1,3-dihydro-2-benzofuran-5-yl)ethyl]piperazin-1-yl}methyl)-5,6,7,8-tetrahydronaphthalene-2-carbonitrile] | 140
21 | O=C1OCc2cc(CCN3CCN(CCc4ccc5nonc5c4)C(=O)C3)ccc21 [Example 27, 1-[2-(2,1,3-Benzoxadiazol-5-yl)ethyl]-4-[2-(1-oxo-1,3-dihydro-2-benzofuran-5-yl)ethyl]piperazin-2-one] | 870
22 | N#Cc1ccc2c(c1)CCC(N1CCN(C3CCc4cc(C#N)ccc4C3)C(=O)C1)C2 (stereo not shown) [Example 15, 6,6′-(2-Oxopiperazine-1,4-diyl)di(5,6,7,8-tetrahydronaphthalene-2-carbonitrile)] | 51
23 | N#Cc1ccc2c(c1)CCC(N1CCN([C@H]3CCc4cc(C#N)ccc4C3)C(=O)C1)C2 (stereo partly drawn) [Example 16, (6S)-6,6′-(2-oxopiperazine-1,4-diyl)-di-(5,6,7,8-tetrahydronaphthalene-2-carbonitrile)] | 100
24 | COC(=O)c1cc([N+](=O)[O-])ccc1CCN1CCN(CCc2ccc([N+](=O)[O-])cc2)C(=O)C1 [Example 7, Methyl 5-nitro-2-(2-{4-[2-(4-nitrophenyl)ethyl]-3-oxopiperazin-1-yl}ethyl)benzoate] | 390
25 | O=C1CN(CCc2ccc([N+](=O)[O-])cc2)CCN1CCc1ccc([N+](=O)[O-])cc1 [Example 1, 1,4-bis[2-(4-nitrophenyl)ethyl]piperazin-2-one] | 70
